Experimental data reported in ChEMBL document CHEMBL1201862, “PubChem BioAssay data set” (2004).
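Interpolation was linear, between the two tested concentrations surrounding the appropriate level; five concentrations were tested over 48 hours in 96-well plates. GI50: concentration for 50% inhibition of growth.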 Active and inactive are the calls of the source. Cut-off read from the data, not from the text of the source: active = GI50 up to about 1.1 µM and inactive = higher.

Experiments:
Assay in all cases: NCI anticancer screen, dose series, 48 h
SK-MEL-28 = tested on: SK-MEL-28
HCT-116 = tested on: HCT-116
NCI-H226 = tested on: NCI-H226
SN12C = tested on: SN12C
UO-31 = tested on: UO-31
U-251 = tested on: U-251
M14 = tested on: M14
TK-10 = tested on: TK-10
SK-MEL-2 = tested on: SK-MEL-2
HT-29 = tested on: HT-29
SK-MEL-5 = tested on: SK-MEL-5
HL-60 = tested on: HL-60
ACHN = tested on: ACHN
HOP-62 = tested on: HOP-62
OVCAR-5 = tested on: OVCAR-5
NCI-H522 = tested on: NCI-H522

Measured: GI50

CC(C)c1cccc(C(C)C)c1NC(=S)NN=C1C=C(C(C)(C)C)C(=O)C(C(C)(C)C)=C1
inactive: SK-MEL-28 34.4 µM | HCT-116 3.59 µM | NCI-H226 10 µM | SN12C 22.2 µM | UO-31 29.6 µM | U-251 16.2 µM | M14 41.6 µM | TK-10 30.4 µM | SK-MEL-2 20.2 µM | HT-29 33 µM | SK-MEL-5 21 µM | HL-60 26.1 µM | ACHN 34.4 µM | HOP-62 16.5 µM

Cc1cc2c(cc1Br)C1(C)CCC(C)C1(C)O2 (stereo unspecified)
inactive: SK-MEL-28 38.4 µM | HCT-116 14 µM | OVCAR-5 23.8 µM | NCI-H226 19.8 µM | SN12C 24.9 µM | UO-31 32.4 µM | U-251 21.8 µM | M14 32.3 µM | TK-10 > 100 µM | SK-MEL-2 18.6 µM | HT-29 30.6 µM | SK-MEL-5 29.1 µM | HL-60 13.4 µM | ACHN 31.2 µM | HOP-62 30.3 µM

COc1cc2c(cc1OC)-c1cc3cc(OC)c(OC)cc3n1CC2
inactive: SK-MEL-28 34 µM | HCT-116 32.4 µM | OVCAR-5 > 100 µM | NCI-H226 33.7 µM | SN12C > 100 µM | UO-31 > 100 µM | U-251 37.7 µM | M14 23.4 µM | TK-10 19.9 µM | SK-MEL-2 > 100 µM | HT-29 16.6 µM | HL-60 > 100 µM | ACHN 31.6 µM | NCI-H522 32.5 µM | HOP-62 31.6 µM

N#C/N=C(/NCCc1c[nH]c2ccccc12)Oc1ccccc1
inactive: SK-MEL-28 > 100 µM | HCT-116 52.5 µM | OVCAR-5 > 100 µM | NCI-H226 77.3 µM | SN12C > 100 µM | UO-31 23.4 µM | U-251 > 100 µM | M14 78.5 µM | TK-10 84.5 µM | HT-29 34.8 µM | SK-MEL-5 35.6 µM | HL-60 21.6 µM | ACHN 27.4 µM | HOP-62 > 100 µM

COc1ccc2c3c(coc13)C(CCC(=O)O)CC2 (stereo unspecified)
inactive: SK-MEL-28 > 100 µM | HCT-116 > 100 µM | SN12C > 100 µM | U-251 > 100 µM | M14 > 100 µM | TK-10 > 100 µM | HT-29 > 100 µM | SK-MEL-5 > 100 µM | ACHN > 100 µM | HOP-62 > 100 µM

CCOC1c2nc3ccccc3nc2-c2ccccc2N1C(C)=O (stereo unspecified)
inactive: SK-MEL-28 > 100 µM | HCT-116 > 100 µM | SN12C > 100 µM | UO-31 > 100 µM | U-251 > 100 µM | M14 > 100 µM | SK-MEL-2 81.7 µM | HT-29 > 100 µM | HL-60 > 100 µM | ACHN > 100 µM | HOP-62 > 100 µM

CC(C)(Oc1ccc(/C=C/C(=O)c2ccc(Cl)cc2)cc1)C(=O)Nc1c(Cl)cccc1Cl
inactive: SK-MEL-28 16.1 µM | HCT-116 6.03 µM | OVCAR-5 41.1 µM | NCI-H226 25.5 µM | SN12C 15 µM | UO-31 24.4 µM | U-251 12.5 µM | M14 17.5 µM | TK-10 59.4 µM | SK-MEL-2 42.3 µM | HT-29 13.3 µM | SK-MEL-5 18.2 µM | ACHN 20.9 µM | HOP-62 72.3 µM

N/N=C1\C(=O)N(CCc2ccccc2)C(=O)C1C(=O)NCCc1ccccc1 (stereo unspecified)
inactive: SK-MEL-28 > 100 µM | HCT-116 > 100 µM | NCI-H226 > 100 µM | SN12C > 100 µM | UO-31 > 100 µM | U-251 > 100 µM | M14 > 100 µM | TK-10 > 100 µM | SK-MEL-2 > 100 µM | HT-29 > 100 µM | HL-60 > 100 µM | ACHN > 100 µM | NCI-H522 > 100 µM
